Reference: article PMC5159191 (Nature, 2016)

Tested on: CCR2-T4L
Assay type: binding, human
Conditions: [3H]-INCB-3344 homologous displacement

`CCO[C@H]1CN(C2CCC(O)(c3ccc4c(c3)OCO4)CC2)C[C@@H]1NC(=O)CNC(=O)c1cccc(C(F)(F)F)c1` (stereo partly shown) [INCB-3344] was tested, and the “improvement of affinity towards CCR2-T4L compared to WT CCR2” value was “approximately 2 fold”.
